Tests used:
ER-α in MCF-7 cells = biological target: T1, ER-α in MCF-7 cells (Homo sapiens, UniProt P03372); test: Breast Cancer Cell ER-α In Cell Western Assay (SP1); format: cell-based; conditions: 4 or 24 hr post compound addition; for Emax: MCF7, SP1 antibody, read-out: ER-α In Cell Western Assay (SP1) Max Response; for DC50: SP1 antibody, read-out: ER-α In Cell Western Assay (SP1) IC50
T1 construct: endogenous in cells; host or cells: MCF-7
T1 sequence (P03372 1-595): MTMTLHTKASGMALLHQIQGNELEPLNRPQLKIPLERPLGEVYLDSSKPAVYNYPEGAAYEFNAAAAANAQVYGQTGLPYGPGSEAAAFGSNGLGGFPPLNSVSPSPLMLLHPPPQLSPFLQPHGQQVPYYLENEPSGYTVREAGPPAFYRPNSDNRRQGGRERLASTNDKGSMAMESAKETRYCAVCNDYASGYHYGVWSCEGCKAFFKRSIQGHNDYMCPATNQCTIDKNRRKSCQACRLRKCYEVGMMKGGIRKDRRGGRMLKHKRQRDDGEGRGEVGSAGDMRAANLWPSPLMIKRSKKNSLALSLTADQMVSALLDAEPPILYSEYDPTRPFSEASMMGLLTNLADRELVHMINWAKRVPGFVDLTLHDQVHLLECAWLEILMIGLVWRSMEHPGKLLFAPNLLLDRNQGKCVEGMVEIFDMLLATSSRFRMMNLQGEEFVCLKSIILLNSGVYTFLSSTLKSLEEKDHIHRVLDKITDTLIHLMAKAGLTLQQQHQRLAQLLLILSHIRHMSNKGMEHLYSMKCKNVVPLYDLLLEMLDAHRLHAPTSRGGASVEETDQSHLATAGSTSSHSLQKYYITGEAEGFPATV
Outline: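 ER-α levels quantified by in-cell western: SP1 signal normalised to DRAQ5 DNA stain, relative to untreated cells (% ER). Compounds at 0.3–0.000003 μM final, 11-point semilog series, 4 or 24 h exposure of MCF-7 cells grown in charcoal-stripped serum.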

MCF-7 cells = test: Breast Cancer Cell Viability Assays (MCF-7, CellTiter-Glo); format: cell-based; conditions: 5 days' compound exposure; for IC50: Homo sapiens, MCF7, 120 h
Outline: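 Percent viability, background-subtracted against untreated wells, was taken from CellTiter-Glo luminescence after 5 days' exposure of MCF-7 cells. Compounds were tested at eleven semilog concentrations, final 0.3–0.000003 μM, in RPMI containing 10% FBS.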

Compound	Emax (ER-α in MCF-7 cells)	DC50 (ER-α in MCF-7 cells)	MCF7 Viability Assay Max Response (MCF-7 cells)	IC50 (MCF-7 cells)
Fc1n[nH]c2ccc(/C(=C(/c3ccccc3)C3CCC3)c3ccc(/C=C/c4cn[nH]c4)cc3)cc12 [Example 206, 5-((E)-1-(4-((E)-2-(1H-Pyrazol-4-yl)vinyl)phenyl)-2-cyclobutyl-2-phenylvinyl)-3-fluoro-1H-indazole]	≥ 40%	≤ 100 nM	+ (+ = a single % value < 40%)	≤ 100 nM
Fc1n[nH]c2ccc(/C(=C(/c3ccccc3)C3CCC3)c3ccc(/C=C/c4ccn[nH]4)cc3)cc12 [Example 207, 5-((E)-1-(4-((E)-2-(1H-Pyrazol-5-yl)vinyl)phenyl)-2-cyclobutyl-2-phenylvinyl)-3-fluoro-1H-indazole]	≥ 40%	≤ 100 nM	+ (+ = a single % value < 40%)	> 100 nM
Fc1n[nH]c2ccc(/C(=C(/c3ccccc3)C3CCC3)c3ccc(/C=C/c4nnco4)cc3)cc12 [Example 208, 2-((E)-4-((E)-2-Cyclobutyl-1-(3-fluoro-1H-indazol-5-yl)-2-phenylvinyl)styryl)-1,3,4-oxadiazole]	≥ 40%	≤ 100 nM	++ (++ = a single % value ≧ 40%)	≤ 100 nM
Fc1n[nH]c2ccc(/C(=C(/c3ccccc3)C3CCC3)c3ccc(/C=C/c4ncon4)cc3)cc12 [Example 209, 3-((E)-4-((E)-2-Cyclobutyl-1-(3-fluoro-1H-indazol-5-yl)-2-phenylvinyl)styryl)-1,2,4-oxadiazole]	≥ 40%	≤ 100 nM	+ (+ = a single % value < 40%)	≤ 100 nM
N=C(N)/C=C/c1ccc(/C(=C(\c2ccccc2)C2CCC2)c2ccc3[nH]nc(F)c3c2)cc1 [Example 210]	≥ 40%	≤ 100 nM	++ (++ = a single % value ≧ 40%)	≤ 100 nM
CC/C(=C(/c1ccc(/C=C/C(=O)O)cc1)c1ccc2[nH]ncc2c1)c1ccc(C(N)=O)cc1F [Example 211, (E)-3-(4-((E)-2-(4-Carbamoyl-2-fluorophenyl)-1-(1H-indazol-5-yl)but-1-en-1-yl)phenyl)acrylic acid]	≥ 40%	> 100 nM	+ (+ = a single % value < 40%)	> 100 nM
O=C(O)/C=C/c1ccc(/C(=C(\c2ccc(F)cc2Cl)C2CCC2)c2coc3c(O)cccc23)cc1 [Example 212, (E)-3-(4-((E)-2-(2-Chloro-4-fluorophenyl)-2-cyclobutyl-1-(7-hydroxybenzofuran-3-yl)vinyl)phenyl)acrylic acid]	≥ 40%	≤ 100 nM	++ (++ = a single % value ≧ 40%)	≤ 100 nM
O=C(O)/C=C/c1ccc(/C(=C(\c2ccncc2Cl)C2CCC2)c2coc3c(O)cccc23)cc1 [Example 213, (E)-3-(4-((E)-2-(3-Chloropyridin-4-yl)-2-cyclobutyl-1-(7-hydroxybenzofuran-3-yl)vinyl)phenyl)acrylic acid]	≥ 40%	≤ 100 nM	++ (++ = a single % value ≧ 40%)	≤ 100 nM
O=C(O)/C=C/c1ccc(/C(=C(\c2ccnc(O)c2)C2CCC2)c2ccc3[nH]nc(F)c3c2)cc1 [Example 214, (E)-3-(4-((E)-2-Cyclobutyl-1-(3-fluoro-1H-indazol-5-yl)-2-(2-hydroxypyridin-4-yl)vinyl)phenyl)acrylic acid]	≥ 40%	> 100 nM	+ (+ = a single % value < 40%)	> 100 nM
Fc1n[nH]c2ccc(/C(=C(/c3ccccc3)C3CCC3)c3ccc(/C=C/c4ccccn4)cc3)cc12 [Example 215]	≥ 40%	≤ 100 nM	++ (++ = a single % value ≧ 40%)	≤ 100 nM
COc1ccc(/C(=C(\c2ccc(/C=C/C(=O)O)cc2)c2ccc3[nH]ncc3c2)C2CCC2)c(Cl)c1 [Example 216, (E)-3-(4-((E)-2-(2-Chloro-4-methoxyphenyl)-2-cyclobutyl-1-(1H-indazol-5-yl)vinyl)phenyl)acrylic acid]	≥ 40%	≤ 100 nM	++ (++ = a single % value ≧ 40%)	≤ 100 nM
Cc1cc(CO)ccc1/C(=C(\c1ccc(/C=C/C(=O)O)cc1)c1ccc2[nH]nc(F)c2c1)C1CCC1 [Example 217, (E)-3-(4-((E)-2-Cyclobutyl-1-(3-fluoro-1H-indazol-5-yl)-2-(4-(hydroxymethyl)-2-methylphenyl)vinyl)phenyl)acrylic acid]	≥ 40%	≤ 100 nM	++ (++ = a single % value ≧ 40%)	≤ 100 nM
N#Cc1ccc(/C(=C(\c2ccc(/C=C/C(=O)O)cc2)c2ccc3scnc3c2)C2CCC2)c(Cl)c1 [Example 218, (E)-3-(4-((E)-1-(Benzo[d]thiazol-5-yl)-2-(2-chloro-4-cyanophenyl)-2-cyclobutylvinyl)phenyl)acrylic acid]	≥ 40%	≤ 100 nM	++ (++ = a single % value ≧ 40%)	≤ 100 nM
N#Cc1cc(Cl)ccc1/C(=C(\c1ccc(/C=C/C(=O)O)cc1)c1ccc2scnc2c1)C1CCC1 [Example 219, (E)-3-(4-((E)-1-(Benzo[d]thiazol-5-yl)-2-(4-chloro-2-cyanophenyl)-2-cyclobutylvinyl)phenyl)acrylic acid]	≥ 40%	≤ 100 nM	++ (++ = a single % value ≧ 40%)	≤ 100 nM
O=C(O)/C=C/c1ccc(/C(=C(\c2ccc(Cl)cc2Cl)C2CCC2)c2ccc3nccn3c2)cc1 [Example 220, (E)-3-(4-((E)-2-Cyclobutyl-2-(2,4-dichlorophenyl)-1-(imidazo[1,2-a]pyridin-6-yl)vinyl)phenyl)acrylic acid]	≥ 40%	≤ 100 nM	++ (++ = a single % value ≧ 40%)	≤ 100 nM
O=C(O)/C=C/c1ccc(/C(=C(\c2ccc(F)cc2C(F)(F)F)C2CCC2)c2ccc3nccn3c2)cc1 [Example 221, (E)-3-(4-((E)-2-Cyclobutyl-2-(4-fluoro-2-(trifluoromethyl)phenyl)-1-(imidazo[1,2-a]pyridin-6-yl)vinyl)phenyl)acrylic acid]	≥ 40%	≤ 100 nM	++ (++ = a single % value ≧ 40%)	≤ 100 nM
N#Cc1c(/C(=C(/c2ccc(F)cc2Cl)C2CC2)c2ccc(/C=C/C(=O)O)cc2)ccc2[nH]nc(F)c12 [Example 222, (E)-3-(4-((E)-2-(2-Chloro-4-fluorophenyl)-1-(4-cyano-3-fluoro-1H-indazol-5-yl)-2-cyclopropylvinyl)phenyl)acrylic acid]	≥ 40%	≤ 100 nM	++ (++ = a single % value ≧ 40%)	≤ 100 nM
O=C(O)/C=C/c1ccc(/C(=C(\c2ccc(Cl)cc2C(F)(F)F)C2CCC2)c2ccc3nccn3c2)cc1 [Example 223, (E)-3-(4-((E)-2-(4-Chloro-2-(trifluoromethyl)phenyl)-2-cyclobutyl-1-(imidazo[1,2-a]pyridin-6-yl)vinyl)phenyl)acrylic acid]	≥ 40%	≤ 100 nM	++ (++ = a single % value ≧ 40%)	≤ 100 nM
N#Cc1c(/C(=C(/c2ccc(F)cc2Cl)C2CCC2)c2ccc(/C=C/C(=O)O)cc2)ccc2nccn12 [Example 224, (E)-3-(4-((E)-2-(2-Chloro-4-fluorophenyl)-1-(5-cyanoimidazo[1,2-a]pyridin-6-yl)-2-cyclobutylvinyl)phenyl)acrylic acid]	≥ 40%	≤ 100 nM	++ (++ = a single % value ≧ 40%)	≤ 100 nM
N#Cc1c(/C(=C(/c2ccc(F)cc2Cl)C2CCC2)c2ccc(/C=C/C(=O)O)cc2)ccc2[nH]nc(F)c12 [Example 225, (E)-3-(4-((E)-2-(2-Chloro-4-fluorophenyl)-1-(4-cyano-3-fluoro-1H-indazol-5-yl)-2-cyclobutylvinyl)phenyl)acrylic acid]	≥ 40%	≤ 100 nM	++ (++ = a single % value ≧ 40%)	≤ 100 nM
N#Cc1ccc(/C(=C(\c2ccc(/C=C/C(=O)O)cc2)c2ccc3nccn3c2)C2CCC2)c(Cl)c1 [Example 226, (E)-3-(4-((E)-2-(2-Chloro-4-cyanophenyl)-2-cyclobutyl-1-(imidazo[1,2-a]pyridin-6-yl)vinyl)phenyl)acrylic acid]	≥ 40%	≤ 100 nM	++ (++ = a single % value ≧ 40%)	≤ 100 nM

Reference: patent US9499538B2, “Estrogen receptor modulators and uses thereof” (Seragon Pharmaceuticals, Inc., priority 2012, dated 2016)
